# Measurements: ChEMBL document CHEMBL3832031, “DailyMed|setid=d3c528d2-429d-4f37-9ebf-eee8b9fd3050 | TRENTINOIN - tretinoin gel| Oceanside Pharmaceuticals”
# Assays:
# [1] = Bioavailability of Tretinoin following multiple topical administration of 0.1 % tretinoin gel to 44 male and female subjects.; assay type: ADME, organism-based; conditions: both, human, in vivo, topical or ocular, dosed compound id 14, dosed compound name TRETINOIN, gender male and female, regimen Multiple dose, study dosing duration 28 days, tissue Plasma
# [2] = Bioavailability of Tretinoin following single topical administration of 0.1 % tretinoin gel to 44 male and female subjects.; assay type: ADME, organism-based; conditions: both, human, in vivo, topical or ocular, dosed compound id 14, dosed compound name TRETINOIN, gender male and female, regimen Single dose, study dosing duration 28 days, tissue Plasma
structure (smiles),measurement,setting,value
CC1=C(/C=C/C(C)=C/C=C/C(C)=C/C(=O)O)C(C)(C)CCC1 [TRETINOIN],bioavailability,[1],1.41%
same,bioavailability,[2],0.82%
